Assays:
in vitro [1] = conditions: rat, lung S9 fraction
Description: Stability in rat lung S9 fraction assessed as half-life at 1 uM incubated for 60 mins by LC-MS/MS analysis

Cavia porcellus [2] = assay: Inhibition of histamine induced bronchoconstriction in male albino Dunkin-Hartley guinea pig model at 3 nmol/kg, IT(Intratracheal) preadministered with compound followed by histamine addition at 5 to 30 mins and measured 1 hrs post compound treatment relative to control; conditions: read-out: INH
Cavia porcellus [3] = species: Cavia porcellus; assay: animal or person; conditions: albino Dunkin-Hartley, 1 h, read-out: INH
Description: Inhibition of acetylcholine induced bronchoconstriction in male albino Dunkin-Hartley guinea pig model at 3 nmol/kg, IT(Intratracheal) preadministered with compound followed by acetylcholine addition at 5 to 30 mins in presence of ICI-118551 and measured 1 hrs post compound treatment relative to control

[4] = Stability in guinea pig lung S9 fraction at 1 uM incubated for 60 mins by LC-MS/MS analysis
in vitro [5] = conditions: human, plasma
Description: Stability in human plasma assessed as half-life at 5 uM incubated for 120 mins by LC-MS/MS analysis

in vitro [6] = conditions: rat, hepatocytes
Description: Metabolic stability in rat hepatocytes assessed as clearance measured per 10^6 cells at 1 uM incubated for 90 mins by LC-MS/MS analysis

Cavia porcellus [7] = assay: Inhibition of acetylcholine induced bronchoconstriction in male albino Dunkin-Hartley guinea pig model at 3 nmol/kg, IT(Intratracheal) preadministered with compound followed by acetylcholine addition at 5 to 30 mins and measured 16 hrs post compound treatment relative to control; conditions: read-out: INH
[8] = target: Beta-2 adrenergic receptor (Cavia porcellus, UniProt Q8K4Z4); assay: Agonist activity at beta2 adrenoceptor in male albino Dunkin-Hartley guinea pig trachea assessed as inhibition of histamine induced smooth muscle contraction
Sequence of Beta-2 adrenergic receptor (Cavia porcellus, UniProt Q8K4Z4) (Q8K4Z4 whole entry): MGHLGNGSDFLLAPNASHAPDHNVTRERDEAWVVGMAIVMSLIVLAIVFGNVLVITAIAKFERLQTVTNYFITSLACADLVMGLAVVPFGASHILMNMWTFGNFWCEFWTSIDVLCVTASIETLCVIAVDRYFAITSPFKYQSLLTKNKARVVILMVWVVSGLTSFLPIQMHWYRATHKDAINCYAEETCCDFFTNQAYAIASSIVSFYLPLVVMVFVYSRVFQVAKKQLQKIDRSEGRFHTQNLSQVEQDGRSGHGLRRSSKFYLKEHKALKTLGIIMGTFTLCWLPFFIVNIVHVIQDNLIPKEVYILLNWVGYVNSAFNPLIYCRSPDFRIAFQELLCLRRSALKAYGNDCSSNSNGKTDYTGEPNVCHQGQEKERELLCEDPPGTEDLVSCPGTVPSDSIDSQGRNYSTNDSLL

[9] = target: Muscarinic acetylcholine receptor M3 (Cavia porcellus, UniProt Q8VH26); assay: Antagonist activity at M3 receptor in male albino Dunkin-Hartley guinea pig trachea assessed as inhibition of carbachol-induced smooth muscle contraction in presence of propranolol
Sequence of Muscarinic acetylcholine receptor M3 (Cavia porcellus, UniProt Q8VH26) (Q8VH26 whole entry): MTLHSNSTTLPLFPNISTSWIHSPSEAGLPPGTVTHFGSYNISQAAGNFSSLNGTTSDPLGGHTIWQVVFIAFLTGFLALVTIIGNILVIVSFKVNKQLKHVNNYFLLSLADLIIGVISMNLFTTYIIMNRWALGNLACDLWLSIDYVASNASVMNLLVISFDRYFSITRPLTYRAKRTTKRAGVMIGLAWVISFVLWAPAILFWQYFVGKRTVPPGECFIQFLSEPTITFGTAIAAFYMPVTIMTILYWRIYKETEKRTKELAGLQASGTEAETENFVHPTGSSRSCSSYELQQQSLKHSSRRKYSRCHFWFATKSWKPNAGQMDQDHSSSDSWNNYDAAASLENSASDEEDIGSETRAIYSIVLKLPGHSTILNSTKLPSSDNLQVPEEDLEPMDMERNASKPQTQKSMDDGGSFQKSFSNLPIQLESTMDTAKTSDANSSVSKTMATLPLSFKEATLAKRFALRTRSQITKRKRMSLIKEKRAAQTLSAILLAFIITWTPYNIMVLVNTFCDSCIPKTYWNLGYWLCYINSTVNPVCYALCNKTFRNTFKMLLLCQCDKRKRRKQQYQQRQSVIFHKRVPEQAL

[10] = target: Beta-2 adrenergic receptor (Homo sapiens, UniProt P07550)
Sequence of Beta-2 adrenergic receptor (Homo sapiens, UniProt P07550) (P07550 whole entry): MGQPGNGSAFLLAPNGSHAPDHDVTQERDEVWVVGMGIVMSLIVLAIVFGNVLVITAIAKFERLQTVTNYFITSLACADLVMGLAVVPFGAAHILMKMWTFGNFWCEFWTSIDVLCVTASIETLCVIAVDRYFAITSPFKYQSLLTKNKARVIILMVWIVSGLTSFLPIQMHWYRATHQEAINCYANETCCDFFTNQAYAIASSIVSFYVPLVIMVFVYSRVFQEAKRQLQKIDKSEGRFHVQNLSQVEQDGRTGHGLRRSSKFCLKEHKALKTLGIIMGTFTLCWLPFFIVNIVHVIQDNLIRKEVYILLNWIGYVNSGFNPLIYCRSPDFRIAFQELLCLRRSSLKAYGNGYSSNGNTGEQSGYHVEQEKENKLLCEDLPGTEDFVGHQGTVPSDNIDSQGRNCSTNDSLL
Description: Displacement of [125I]-Cyanopindolol from human beta2 adrenoceptor assessed as inhibition constant incubated for 1 hrs by Microbeta scintillation counter

Cavia porcellus [11] = assay: Inhibition of histamine induced bronchoconstriction in male albino Dunkin-Hartley guinea pig model at 3 nmol/kg, IT(Intratracheal) preadministered with compound followed by histamine addition at 5 to 30 mins and measured 16 hrs post compound treatment relative to control; conditions: read-out: INH
in vitro [12] = conditions: human, lung S9 fraction
Description: Stability in human lung S9 fraction assessed as half-life at 1 uM incubated for 60 mins by LC-MS/MS analysis

in vitro [13] = conditions: guinea pig, plasma
Description: Stability in guinea pig plasma assessed as half-life at 5 uM incubated for 120 mins by LC-MS/MS analysis

[14] = target: Muscarinic acetylcholine receptor M3 (Homo sapiens, UniProt P20309)
Sequence of Muscarinic acetylcholine receptor M3 (Homo sapiens, UniProt P20309) (P20309 whole entry): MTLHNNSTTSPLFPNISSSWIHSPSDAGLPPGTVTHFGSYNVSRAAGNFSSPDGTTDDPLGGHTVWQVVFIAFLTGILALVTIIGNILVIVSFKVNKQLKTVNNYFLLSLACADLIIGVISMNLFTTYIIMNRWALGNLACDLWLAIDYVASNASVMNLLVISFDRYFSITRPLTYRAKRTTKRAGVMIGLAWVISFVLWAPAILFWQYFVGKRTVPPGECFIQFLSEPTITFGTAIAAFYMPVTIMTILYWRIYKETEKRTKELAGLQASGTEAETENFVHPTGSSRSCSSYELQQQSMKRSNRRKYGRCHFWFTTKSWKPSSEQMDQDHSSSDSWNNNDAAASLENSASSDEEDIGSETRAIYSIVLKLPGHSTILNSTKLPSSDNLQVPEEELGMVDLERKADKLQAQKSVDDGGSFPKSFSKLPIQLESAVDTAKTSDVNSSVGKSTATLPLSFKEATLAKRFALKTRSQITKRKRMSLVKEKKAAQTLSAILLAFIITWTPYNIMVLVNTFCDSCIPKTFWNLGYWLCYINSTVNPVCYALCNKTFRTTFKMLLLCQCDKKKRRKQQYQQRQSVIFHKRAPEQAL
Description: Displacement of Scopolamine methyl chloride,[N-methyl-3H] from human muscarinic M3 receptor assessed as inhibition constant incubated for 2 hrs by Microbeta scintillation counter

in vitro [15] = conditions: guinea pig, hepatocytes
Description: Metabolic stability in guinea pig hepatocytes assessed as clearance measured per 10^6 cells at 1 uM incubated for 90 mins by LC-MS/MS analysis

[16] = Protein binding in human plasma at 5 uM incubated for 4 hrs by LC-MS/MS analysis
in vitro [17] = conditions: rat, plasma
Description: Stability in rat plasma assessed as half-life at 5 uM incubated for 120 mins by LC-MS/MS analysis

[18] = Protein binding in guinea pig plasma at 5 uM incubated for 4 hrs by LC-MS/MS analysis
in vitro [19] = conditions: guinea pig, lung S9 fraction
Description: Stability in guinea pig lung S9 fraction assessed as half-life at 1 uM incubated for 60 mins by LC-MS/MS analysis

Trachea = assay: Inhibition of carbachol-induced smooth muscle contraction in male albino Dunkin-Hartley guinea pig trachea; conditions: Cavia porcellus, read-out: pIC50 (converted)
Cavia porcellus [20] = species: Cavia porcellus; assay: animal or person; conditions: albino Dunkin-Hartley, 16 h, read-out: INH
Description: Inhibition of acetylcholine induced bronchoconstriction in male albino Dunkin-Hartley guinea pig model at 3 nmol/kg, IT(Intratracheal) preadministered with compound followed by acetylcholine addition at 5 to 30 mins in presence of ICI-118551 and measured 16 hrs post compound treatment relative to control

in vitro [21] = conditions: human, hepatocytes
Description: Metabolic stability in human hepatocytes assessed as clearance measured per 10^6 cells at 1 uM incubated for 90 mins by LC-MS/MS analysis

Cavia porcellus [22] = assay: Inhibition of acetylcholine induced bronchoconstriction in male albino Dunkin-Hartley guinea pig model at 3 nmol/kg, IT(Intratracheal) preadministered with compound followed by acetylcholine addition at 5 to 30 mins and measured 1 hrs post compound treatment relative to control; conditions: read-out: INH
[23] = Protein binding in rat plasma at 5 uM incubated for 4 hrs by LC-MS/MS analysis
Cavia porcellus [24] = assay: Inhibition of acetylcholine induced bronchoconstriction in male albino Dunkin-Hartley guinea pig model at 3 nmol/kg, IT(Intratracheal) preadministered with compound followed by acetylcholine addition at 5 to 30 mins and measured 24 hrs post compound treatment relative to control; conditions: read-out: INH
Cavia porcellus [25] = assay: Inhibition of acetylcholine induced bronchoconstriction in male albino Dunkin-Hartley guinea pig model at 1 nmol/kg, IT(Intratracheal) preadministered with compound followed by acetylcholine addition at 5 to 30 mins and measured 1 hrs post compound treatment relative to control; conditions: read-out: INH
in vivo = conditions: male, Dunkin-Hartley, guinea pig, inhaled or intranasal, 0.3 mM
Description: Toxicity in male albino Dunkin-Hartley guinea pig model assessed as inhibition of carbachol-induced salivation at 0.3 mM, preadministered with compound for 10 mins via aerosol followed by anesthesia treatment 3 hrs post compound addition and further treated with carbachol and measured every 5 mins for 4 times

SMILES	half-life at 1 h, 1 µM (in vitro [1])	inhibition in vivo at 0.003 µmol/kg (Cavia porcellus [2])	inhibition in vivo at 0.003 µmol/kg (Cavia porcellus [3])	half-life at 2 h, 5 µM (in vitro [5])	hepatocyte CLint at 1.5 h, 1 µM (in vitro [6])	IC50 [8]	IC50 [9]	Ki [10]	half-life at 1 h, 1 µM (in vitro [12])	half-life at 2 h, 5 µM (in vitro [13])	Ki [14]	fraction unbound at 4 h, 5 µM [16]	half-life at 2 h, 5 µM (in vitro [17])	half-life at 1 h, 1 µM (in vitro [19])	IC50 (Trachea)	hepatocyte CLint at 1.5 h, 1 µM (in vitro [21])	inhibition in vivo at 0.003 µmol/kg (Cavia porcellus [22])	also measured
O=C(NCCCOc1cccc([C@@](O)(C(=O)OCC2CCN(Cc3ccccc3)CC2)c2ccccc2)c1)c1ccc(CNCC(O)c2ccc(O)c3[nH]c(=O)ccc23)cc1 (some centres undefined)	4.52 h	86%	70%	> 2.5 h	33 µL/min/1e6 cells	0.0501 nM	10 nM	0.0501 nM	2.3 h	> 2.5 h	10 nM	0.01	0.183 h	4.67 h	0.251 nM	18 µL/min/1e6 cells	93%	remaining at 1 h, 1 µM [4]: 91.9%; inhibition in vivo at 0.003 µmol/kg (Cavia porcellus [7]): 56%; inhibition in vivo at 0.003 µmol/kg (Cavia porcellus [11]): 39%; hepatocyte CLint at 1.5 h, 1 µM (in vitro [15]): 41 µL/min/1e6 cells; fraction unbound at 4 h, 5 µM [18]: 0.01; inhibition in vivo at 0.003 µmol/kg (Cavia porcellus [20]): 39%
O=C(c1ccc(OCc2ccc(CNC[C@H](O)c3ccc(O)c4[nH]c(=O)ccc34)cc2)cc1)N1CCC(C(=O)OC2CN3CCC2CC3)(c2ccccc2)CC1 (single isomer, unassigned)	3.62 h	21%	90%	> 2.5 h	27 µL/min/1e6 cells	0.501 nM	2.51 nM	0.2 nM	4.67 h	1.82 h	0.251 nM	0.02	> 2.5 h	3.6 h	1 nM	15 µL/min/1e6 cells	93%	fraction unbound at 4 h, 5 µM [23]: 0.15; inhibition in vivo at 0.003 µmol/kg (Cavia porcellus [24]): 68%; inhibition in vivo at 0.001 µmol/kg (Cavia porcellus [25]): 60%
C[N+]1(C)[C@@H]2C[C@@H](OC(=O)C(O)(c3cccs3)c3cccs3)C[C@H]1[C@@H]1O[C@@H]12 [TIOTROPIUM BROMIDE]																		inhibition at 3.167 h, 300 µM (in vivo): 77%

Reference: ChEMBL document CHEMBL5500396, “Discovery, Multiparametric Optimization, and Solid-State Driven Identification of CHF-6550, a Novel Soft Dual Pharmacology Muscarinic Antagonist and β2 Agonist (MABA) for the Inhaled Treatment of Respiratory Diseases” (J Med Chem, 2024)
